Results taken from ChEMBL document CHEMBL1155106, “Progesterone receptor antagonists with a 3-phenylquinazoline-2,4-dione/2-phenylisoquinoline-1,3-dione skeleton” (Bioorg Med Chem, 2008).
Calls of active or inactive are those of the source. The rule behind the calls is not given here.

Columns and labels:
Progesterone receptor [1] = molecular target: T1, Progesterone receptor (Homo sapiens, UniProt P06401); test: Antagonist activity at progesterone receptor in human T47D cells assessed as inhibition of progesterone-induced alkaline phosphatase activity; assay type: functional, cell-based
T1 sequence (P06401 whole entry): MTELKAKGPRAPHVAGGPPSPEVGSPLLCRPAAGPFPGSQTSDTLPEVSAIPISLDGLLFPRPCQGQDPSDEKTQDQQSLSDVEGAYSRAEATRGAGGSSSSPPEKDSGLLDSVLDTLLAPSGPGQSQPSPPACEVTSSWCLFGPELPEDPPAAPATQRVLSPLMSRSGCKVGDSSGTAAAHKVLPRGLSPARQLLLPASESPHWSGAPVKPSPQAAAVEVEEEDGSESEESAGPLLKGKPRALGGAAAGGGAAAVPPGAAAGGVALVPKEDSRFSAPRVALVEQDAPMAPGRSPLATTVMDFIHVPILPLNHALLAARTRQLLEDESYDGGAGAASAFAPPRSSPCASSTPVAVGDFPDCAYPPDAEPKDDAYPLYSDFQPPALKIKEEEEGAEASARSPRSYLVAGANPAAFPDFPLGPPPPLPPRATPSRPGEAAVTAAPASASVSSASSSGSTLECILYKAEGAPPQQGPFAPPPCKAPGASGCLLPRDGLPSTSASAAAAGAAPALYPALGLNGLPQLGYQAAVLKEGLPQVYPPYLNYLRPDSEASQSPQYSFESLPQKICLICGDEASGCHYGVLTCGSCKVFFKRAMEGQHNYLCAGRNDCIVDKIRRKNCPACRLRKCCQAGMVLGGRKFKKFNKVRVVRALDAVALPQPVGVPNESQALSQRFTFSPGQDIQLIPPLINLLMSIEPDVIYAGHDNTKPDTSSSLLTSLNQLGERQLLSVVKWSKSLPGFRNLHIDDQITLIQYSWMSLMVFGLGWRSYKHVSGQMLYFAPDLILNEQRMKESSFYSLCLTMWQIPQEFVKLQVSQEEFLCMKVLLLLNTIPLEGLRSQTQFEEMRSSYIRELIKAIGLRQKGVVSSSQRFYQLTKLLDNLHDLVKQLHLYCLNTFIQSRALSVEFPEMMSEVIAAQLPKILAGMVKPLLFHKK

Progesterone receptor [2] = molecular target: T1, Progesterone receptor; test: Antagonist activity at human progesterone receptor expressed in CHO cells assessed as […] luciferase activity by reporter gene assay; assay type: functional, cell-based
[3] = molecular target: T2, Progesterone receptor (Homo sapiens) (UniProt P06401); test: Agonist activity at progesterone receptor in human T47D cells assessed as induction of alkaline phosphatase activity
T2 sequence (whole entry): T1 sequence (P06401 whole entry)

[4] = molecular target: T2, Progesterone receptor (Homo sapiens); test: Agonist activity at human progesterone receptor expressed in CHO cells assessed as […] luciferase activity by reporter gene assay; assay type: functional, cell-based
[5] = molecular target: T2, Progesterone receptor (Homo sapiens); test: Antagonist activity at progesterone receptor in human T47D cells assessed as inhibition of progesterone-induced alkaline phosphatase activity at 100 uM; assay type: functional, cell-based
[6] = molecular target: T2, Progesterone receptor (Homo sapiens); test: Antagonist activity at human progesterone receptor expressed in CHO cells assessed as inhibition of progesterone-induced luciferase activity by reporter gene assay at 100 uM; assay type: functional, cell-based
[7] = molecular target: T3, Androgen receptor (Homo sapiens) (UniProt P10275); test: Displacement of [3H]testosterone from androgen receptor expressed in human T47D cells; assay type: cell-based
T3 sequence (whole entry): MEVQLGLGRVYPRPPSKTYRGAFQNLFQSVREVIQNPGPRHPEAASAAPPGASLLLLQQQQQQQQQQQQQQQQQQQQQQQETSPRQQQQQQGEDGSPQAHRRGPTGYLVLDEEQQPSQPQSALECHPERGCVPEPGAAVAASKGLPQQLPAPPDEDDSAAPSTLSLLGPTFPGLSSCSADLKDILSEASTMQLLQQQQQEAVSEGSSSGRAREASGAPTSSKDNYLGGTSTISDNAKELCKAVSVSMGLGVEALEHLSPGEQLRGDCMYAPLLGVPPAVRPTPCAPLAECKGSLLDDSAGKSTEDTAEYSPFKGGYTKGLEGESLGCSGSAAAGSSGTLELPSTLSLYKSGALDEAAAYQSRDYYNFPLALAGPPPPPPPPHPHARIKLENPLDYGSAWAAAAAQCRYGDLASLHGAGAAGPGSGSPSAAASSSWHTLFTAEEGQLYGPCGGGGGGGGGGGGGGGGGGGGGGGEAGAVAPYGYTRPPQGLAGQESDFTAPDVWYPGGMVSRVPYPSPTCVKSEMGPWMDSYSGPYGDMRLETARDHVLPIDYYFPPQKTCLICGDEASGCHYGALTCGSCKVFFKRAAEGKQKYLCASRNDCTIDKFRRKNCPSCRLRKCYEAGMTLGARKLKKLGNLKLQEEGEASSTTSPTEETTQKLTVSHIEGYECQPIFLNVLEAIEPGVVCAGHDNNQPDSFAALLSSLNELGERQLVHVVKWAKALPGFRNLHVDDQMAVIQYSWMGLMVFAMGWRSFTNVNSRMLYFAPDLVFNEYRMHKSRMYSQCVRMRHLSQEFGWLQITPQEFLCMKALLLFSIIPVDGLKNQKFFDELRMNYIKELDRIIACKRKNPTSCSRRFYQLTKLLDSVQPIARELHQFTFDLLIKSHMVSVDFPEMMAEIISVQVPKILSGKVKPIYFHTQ

[8] = molecular target: T4, Estrogen receptor (Homo sapiens) (UniProt P03372); test: Displacement of [3H]estradiol from estrogen receptor expressed in human T47D cells; assay type: cell-based
T4 sequence (whole entry): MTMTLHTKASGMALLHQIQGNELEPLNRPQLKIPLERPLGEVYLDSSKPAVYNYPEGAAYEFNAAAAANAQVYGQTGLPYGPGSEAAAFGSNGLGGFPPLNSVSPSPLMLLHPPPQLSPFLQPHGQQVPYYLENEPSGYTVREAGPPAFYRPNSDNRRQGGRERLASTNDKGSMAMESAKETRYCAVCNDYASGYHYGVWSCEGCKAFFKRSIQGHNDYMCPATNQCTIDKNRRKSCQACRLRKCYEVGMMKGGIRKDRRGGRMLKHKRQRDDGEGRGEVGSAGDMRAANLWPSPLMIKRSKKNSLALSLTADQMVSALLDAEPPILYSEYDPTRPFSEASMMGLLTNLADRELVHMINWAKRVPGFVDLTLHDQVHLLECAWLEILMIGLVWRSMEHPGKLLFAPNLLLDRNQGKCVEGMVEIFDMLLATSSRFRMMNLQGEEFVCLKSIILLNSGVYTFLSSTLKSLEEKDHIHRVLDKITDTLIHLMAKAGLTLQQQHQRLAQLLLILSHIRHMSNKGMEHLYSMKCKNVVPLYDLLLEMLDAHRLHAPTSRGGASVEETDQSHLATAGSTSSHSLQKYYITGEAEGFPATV

Cc1ccc(N2C(=O)c3ccccc3C(C)(C)C2=O)cc1
IC50 (Progesterone receptor [1]): 8.1 µM
IC50 (Progesterone receptor [2]): 8.9 µM

CC1(C)C(=O)N(c2cccc(F)c2)C(=O)c2ccccc21
IC50 (Progesterone receptor [1]): 10 µM
IC50 (Progesterone receptor [2]): 11 µM

CCC1(CC)C(=O)N(c2ccc(Cl)cc2)C(=O)c2ccccc21
IC50 (Progesterone receptor [1]): 0.25 µM
IC50 (Progesterone receptor [2]): 0.28 µM

CC1(C)C(=O)N(c2ccc(F)cc2)C(=O)c2ccccc21
IC50 (Progesterone receptor [1]): 6.8 µM
IC50 (Progesterone receptor [2]): 8.9 µM

CC1(C)C(=O)N(c2ccc(C#N)cc2)C(=O)c2ccccc21
IC50 (Progesterone receptor [1]): 1.6 µM
IC50 (Progesterone receptor [2]): 1.8 µM

CC1(C)C(=O)N(c2ccccc2)C(=O)c2ccccc21
IC50 (Progesterone receptor [1]): 20 µM
IC50 (Progesterone receptor [2]): 26 µM

O=c1c2ccccc2n(Cc2ccccc2)c(=O)n1-c1ccccc1
IC50 (Progesterone receptor [1]): 11 µM
Activity [3]: inactive
IC50 (Progesterone receptor [2]): 15 µM
Activity [4]: inactive

C=CCC1(CC=C)C(=O)N(c2ccc(C#N)cc2)C(=O)c2ccccc21
IC50 (Progesterone receptor [1]): 0.11 µM
IC50 (Progesterone receptor [2]): 0.15 µM

CCCC1(CCC)C(=O)N(c2ccc(C#N)cc2)C(=O)c2ccccc21
IC50 (Progesterone receptor [1]): 0.12 µM
IC50 (Progesterone receptor [2]): 0.14 µM

COc1ccc(N2C(=O)c3ccccc3C(C)(C)C2=O)cc1
IC50 (Progesterone receptor [1]): 11 µM
IC50 (Progesterone receptor [2]): 17 µM

O=C1CC(O)C(N2C(=O)c3ccccc3C2=O)C(=O)N1 (stereo not drawn)
inhibition [5]: 30.6%

O=C1CC(O)C(N2C(=O)c3ccc(O)cc3C2=O)C(=O)N1 (stereo not drawn)
inhibition [5]: 29.4%

O=C1CCC(N2C(=O)c3ccccc3C2=O)C(=O)N1O (stereo not drawn)
inhibition [5]: 42.5%

CC1(C)C(=O)N(c2ccccc2Cl)C(=O)c2ccccc21
IC50 (Progesterone receptor [1]): 4.1 µM
IC50 (Progesterone receptor [2]): 4.9 µM

CCn1c(=O)n(-c2ccccc2)c(=O)c2ccccc21
IC50 (Progesterone receptor [1]): 30 µM
Activity [3]: inactive
IC50 (Progesterone receptor [2]): 34 µM
Activity [4]: inactive

C=CCC1(CC=C)C(=O)N(c2ccc(Cl)cc2)C(=O)c2ccccc21
IC50 (Progesterone receptor [1]): 0.4 µM
IC50 (Progesterone receptor [2]): 0.85 µM

CCCC1(CCC)C(=O)N(c2ccc(Cl)cc2)C(=O)c2ccccc21
IC50 (Progesterone receptor [1]): 1.1 µM
IC50 (Progesterone receptor [2]): 1 µM

N#Cc1ccc(N2C(=O)c3ccccc3C3(CCCC3)C2=O)cc1
IC50 (Progesterone receptor [1]): 1.2 µM
IC50 (Progesterone receptor [2]): 0.69 µM

O=C1CCC(N2C(=O)c3cccc(O)c3C2=O)C(=O)N1O (stereo not drawn)
inhibition [5]: 30.7%

CC1(C)C(=O)N(c2ccc(Cl)cc2)C(=O)c2ccccc21
IC50 (Progesterone receptor [1]): 1.3 µM
IC50 (Progesterone receptor [2]): 3.3 µM

O=C1CCC(N2C(=O)c3ccc(O)cc3C2=O)C(=O)N1O (stereo not drawn)
inhibition [5]: 53.7%

O=C1c2ccccc2C2(CCCCC2)C(=O)N1c1ccc(Cl)cc1
IC50 (Progesterone receptor [1]): 1.1 µM
IC50 (Progesterone receptor [2]): 1.5 µM

O=C1Cc2ccccc2C(=O)N1c1ccccc1
inhibition [5]: 25%
inhibition [6]: 38%

CCCn1c(=O)n(-c2ccccc2)c(=O)c2ccccc21
IC50 (Progesterone receptor [1]): 23 µM
Activity [3]: inactive
IC50 (Progesterone receptor [2]): 18 µM
Activity [4]: inactive

N#Cc1ccc(N2C(=O)c3ccccc3C3(CCCCC3)C2=O)cc1
IC50 (Progesterone receptor [1]): 0.88 µM
IC50 (Progesterone receptor [2]): 0.45 µM

O=c1[nH]c2ccccc2c(=O)n1-c1ccccc1
Activity [3]: inactive
Activity [4]: inactive
inhibition [5]: 34%

Cn1c(=O)n(-c2ccccc2)c(=O)c2ccccc21
IC50 (Progesterone receptor [1]): 84 µM
Activity [3]: inactive
Activity [4]: inactive

CC1(C)C(=O)N(c2ccccc2F)C(=O)c2ccccc21
IC50 (Progesterone receptor [1]): 13 µM
IC50 (Progesterone receptor [2]): 10 µM

O=C1CCC(N2C(=O)c3ccccc3C2=O)C(=O)N1 (stereo not drawn)
Activity [5]: inactive

O=C1c2ccccc2C2(CCCC2)C(=O)N1c1ccc(Cl)cc1
IC50 (Progesterone receptor [1]): 1.3 µM
IC50 (Progesterone receptor [2]): 2.1 µM

CC1(C)C(=O)N(c2cccc(Cl)c2)C(=O)c2ccccc21
IC50 (Progesterone receptor [1]): 3.4 µM
IC50 (Progesterone receptor [2]): 5.8 µM

CCC1(CC)C(=O)N(c2ccc(C#N)cc2)C(=O)c2ccccc21
IC50 (Progesterone receptor [1]): 0.074 µM
Activity [7]: inactive
Activity [8]: inactive
IC50 (Progesterone receptor [2]): 0.078 µM
